Where two headings read alike, the source gives them in different places.
What was measured:
[1] = in vivo; details: mouse, in vivo, po; for selectivity ratio: LD50 per os/ED50 per os
Description: (§1) The toxicity of the products to be studied was investigated by the oral administration, using an esophageal tube, of each of the said products to male mice with a body weight of 18 to 22 g, divided into groups each containing 10 to 20 animals. The mortality was recorded over a 14-day period.
(§2) The results obtained, which are expressed in the form of LD50 in mg/kg, are collated in Table II below.

[2] = test system: convulsions induced by supramaximal electroshock (MCE); assay: Anticonvulsant properties: convulsions induced by supramaximal electroshock (MCE), oral, mice; assay type: in vivo; details: per os, male mice, 30 min after administration; for ED50: Mus musculus, po, 0.5 h, read-out: ED50 in respect of convulsions induced by MCE
Description: (§7) The anticonvulsant properties were investigated on male mice, thirty minutes after the oral administration of the substances to be studied, by the induction of convulsive seizures.
These seizures are caused either by the intraperitoneal injection of pentetrazole (125 mg/kg) or by electrical stimulation of the cornea (supra-maximal electroshock, abbreviated to MCE).
MCE: supramaximal electroshock;
*: ED50 in mg/kg, determined per os on groups each containing ten

[3] = test system: convulsions induced by pentetrazole (PTZ); assay: Anticonvulsant properties: convulsions induced by pentetrazole (PTZ), oral, mice; assay type: in vivo; details: per os, male mice, 30 min after administration, pentetrazole 125 mg/kg i.p.; for ED50: Mus musculus, po, 0.5 h, read-out: ED50 in respect of convulsions induced by PTZ
Description: as §7

[4] = test system: male mice; assay: in vivo
Description: as §1, §2

[5] = test system: male mice; assay: in vivo; assay type: in vivo
Description: (§3) The neurotoxic properties were assessed on male mice by the so-called "Rota-rod" test carried out thirty minutes after the oral administration of the substances to be studied. The animals (divided into groups each containing ten male mice per dose and per product) are installed on the rod and their fall is observed over the next two minutes.
(§4) The results obtained are expressed in the form of the 50% neurotoxic dose (TD50) per os, which is the dose causing 50% of the animals to fall.
(§5) Protection index: TD50 per os/ED50 per os
(§6) *dose determined per os on groups each containing ten male mice.

[6] = in vivo; assay type: in vivo; details: mouse, in vivo, po
Description: as §3, §4, §5, §6

[7] = LD50, Table II, male mice, 14 days
[8] = LD50, Table IV, per os, male mice
[9] = TD50 per os/ED50 per os, PTZ, read-out: Protection index PTZ
[10] = versus sodium valproate and trimethadione
[11] = Rota-rod, per os, male mice, 30 min after administration, read-out: TD50

Molecule `CC(=NOCCN(C)C)c1scnc1C` [Ex. 20] has an LD50 at 336 h [1, 7] of over 1000 mg/kg, an ED50 [2] of over 200 mg/kg and an ED50 [3] of over 200 mg/kg.

For `CCOc1ccccc1CON=C(C)c1scnc1C` [Ex. 17], the LD50 at 336 h [1, 7] was over 1000 mg/kg, the ED50 [2] was over 200 mg/kg and the ED50 [3] was over 200 mg/kg.

`CCCCON=C(C)c1scnc1C` [Ex. 8, 5-(1-n-butoxyiminoethyl)-4-methylthiazole] gave an LD50 at 336 h [1, 7] of 750 mg/kg, an ED50 [2] of over 200 mg/kg and an ED50 [3] of over 200 mg/kg.

With `CCON=C(C)c1scnc1C` [Ex. 5] the “therapeutic indices compared with the reference products” value ([4]; mouse, in vivo) was “better than those of the reference products”, the LD50 at 336 h ([1]; LD50) was 1000 mg/kg and the selectivity ratio ([1]; Therapeutic index MCE, MCE) was 8.3. For the same molecule, the selectivity ratio ([1]; Therapeutic index PTZ, PTZ) was 10, the “ED50 in respect of convulsions induced by MCE” value ([2]; 30 min) was 120 mg/kg and the “protection indices compared with the reference products” value ([5]; mouse, in vivo) was “better than those of the reference products”. For the same molecule, the selectivity ratio ([6]; Protection index MCE) was 6.3, the selectivity ratio ([6]; Protection index PTZ) was 7.5 and the TD50 at 0.5 h ([6]; TD50) was 750 mg/kg. For the same molecule, the “ED50 in respect of convulsions induced by PTZ” value ([3]; 30 min) was 100 mg/kg.

`CCCCON=C(C)c1scnc1C.Cl` [Ex. 9, 5-(1-n-butoxyiminoethyl)-4-methylthiazole hydrochloride] gave an LD50 at 336 h [1, 7] of over 1000 mg/kg, an LD50 at 336 h [1, 8] of over 1000 mg/kg and a selectivity ratio ([1]; Therapeutic index MCE, MCE) of over 6.7. The selectivity ratio ([1]; Therapeutic index PTZ, PTZ) was over 7.3, the ED50 [2] was 150 mg/kg and the selectivity ratio ([6]; Protection index MCE) was 4. The selectivity ratio ([6]; Protection index PTZ) was 4.4, the TD50 at 0.5 h ([6]; TD50) was 600 mg/kg and the ED50 [3] was 138 mg/kg.

Molecule `CCCC(CCC)C(=O)O` [VALP, sodium valproate, reference compound] has a selectivity ratio ([1]; Therapeutic index MCE, MCE) of 4, a selectivity ratio ([1]; Therapeutic index PTZ, PTZ) of 4 and a selectivity ratio ([6]; TD50 per os/ED50 per os, MCE, read-out: Protection index MCE) of 2.8. The selectivity ratio [6, 9] was 2.7.

Molecule `CC(=NOC(C)C)c1scnc1C` [Ex. 6] has an LD50 at 336 h [1, 7] of over 1000 mg/kg, an ED50 [2] of over 200 mg/kg and an ED50 [3] of 112 mg/kg.

Molecule `CON=C(C)c1sc(Br)nc1C` [Ex. 25] has an LD50 at 336 h [1, 7] of over 1000 mg/kg, an ED50 [2] of over 200 mg/kg and an ED50 [3] of over 200 mg/kg.

For `CC(=NOCc1cccc(C(F)(F)F)c1)c1scnc1C` [Ex. 16], the “therapeutic indices compared with the reference products” value [4, 10] was “better than those of the reference products”, the LD50 at 336 h [1, 7] was over 1000 mg/kg and the LD50 at 336 h [1, 8] was over 1000 mg/kg. The selectivity ratio ([1]; Therapeutic index PTZ, PTZ) was over 10.4, the ED50 [2] was over 200 mg/kg and the “protection indices compared with the reference products” value [5, 10] was “better than those of the reference products”. For the same molecule, the selectivity ratio [6, 9] was 15.6, the TD50 at 0.5 h [6, 11] was 1500 mg/kg and the ED50 [3] was 96 mg/kg.

For `CC(=NO)c1sc(Cl)nc1C` [Ex. 22], the LD50 at 336 h [1, 7] was over 1000 mg/kg, the ED50 [2] was over 200 mg/kg and the ED50 [3] was over 200 mg/kg.

Work on `CC(=NOCc1cccc(Cl)c1)c1scnc1C` [Ex. 14] yielded an LD50 at 336 h [1, 7] of over 1000 mg/kg, an LD50 at 336 h [1, 8] of over 1000 mg/kg and a selectivity ratio ([1]; Therapeutic index PTZ, PTZ) of over 7.1. It also gave an ED50 [2] of over 200 mg/kg, a selectivity ratio [6, 9] of 5.4 and a TD50 at 0.5 h [6, 11] of 750 mg/kg. For the same molecule, the ED50 [3] was 140 mg/kg.

Molecule `CC(=NO)c1sc(Br)nc1C` [Ex. 23] has an LD50 at 336 h [1, 7] of over 1000 mg/kg, an ED50 [2] of over 200 mg/kg and an ED50 [3] of over 200 mg/kg.

`CON=C(C)c1sc(Cl)nc1C` [Ex. 24] showed an LD50 at 336 h [1, 7] of over 1000 mg/kg, an ED50 [2] of over 200 mg/kg and an ED50 [3] of over 200 mg/kg.

In the case of `CON=C(C)c1scnc1C` [Ex. 1, 5-(1-methoxyiminoethyl)-4-methylthiazole], the “therapeutic indices compared with the reference products” value ([4]; mouse, in vivo) is reported as “better than those of the reference products”, the LD50 at 336 h [1, 7] is reported as 740 mg/kg and the LD50 at 336 h [1, 8] is reported as 740 mg/kg. The selectivity ratio ([1]; Therapeutic index MCE, MCE) was 8.8, the selectivity ratio ([1]; Therapeutic index PTZ, PTZ) was 11.9 and the ED50 [2] was 84 mg/kg. The “protection indices compared with the reference products” value ([5]; mouse, in vivo) was “better than those of the reference products”, the selectivity ratio ([6]; Protection index MCE) was 4.1 and the selectivity ratio ([6]; Protection index PTZ) was 5.6. For the same molecule, the TD50 at 0.5 h ([6]; TD50) was 347 mg/kg and the ED50 [3] was 62 mg/kg.

Molecule `CC(=NOCCN1CCCC1)c1scnc1C` [Ex. 21] has an LD50 at 336 h [1, 7] of 360 mg/kg, an ED50 [2] of over 200 mg/kg and an ED50 [3] of over 200 mg/kg.
